The text below walks through data of patent US8765809B2, “Ester derivative and use thereof” (Ajinomoto Co., Inc., priority 2006, dated 2014).

This test has as its system auricle of hairless mouse. The experiment in a line: Measurement of external blood circulation enhancing action: vasodilatory effect (red spots) after application to the ear. The following applies: for Vasodilatory effect on hairless mouse (red spots) / red spots almost disappeared at / weak red spots were observed at, time after application / red spots were observed at, time after application / red spots at 1 hr after application: 5 wt % (ethanol); for red spots disappeared in / weak red spots were observed even after lapse of / blood circulation enhancing effect (note, words): application of 5 wt % in liquid paraffin; for vasodilatory / blood circulation enhancing effect, summary in words: summary of Tables 2 to 4; for red spots at 1 hr after application: 1 hr later. More on the design: key to Vasodilatory effect for hairless mouse (red spots) / Vasodilatory effect on hairless mouse (red spots): O: clear red spots is confirmed; Δ: weak red spots is confirmed; x: no development of red spots. In kind it is in vivo, hairless mouse (HR-1, female). The source says:
The compound of each Example, capsinoid derivative and capsaicin were compared for vasodilatory effect using auricle of hairless mouse. A sample was applied to the right ear of hairless mouse (HR-1, female), and a control was applied to the left ear. […]

Where [1] appears, read: 5 wt % (liquid paraffin) as printed, second column of Table 2.
Setting [2] is: 5 wt % (liquid paraffin), first column of Table 2.

Molecules are shown by their SMILES.

Consider `COc1cc(CCCOC(=O)CCCCC(C)C)ccc1O` [compound J-2, 3-(3-methoxy-4-hydroxyphenyl)propyl 6-methylheptanoate], for which the “Vasodilatory effect on hairless mouse (red spots)” value is “∘”; the “red spots almost disappeared at” value is recorded as “almost disappeared at 30 min later”; the “weak red spots were observed at, time after application” value is “Weak red spots were observed at 10 min”; the “red spots disappeared in” value is “spots disappeared in 1 hr”. Further, the “vasodilatory / blood circulation enhancing effect, summary in words” value is “weak blood circulation enhancing effect”. Moreover, the “Vasodilatory effect for hairless mouse (red spots)” value under setting [1] is given as “x”. In addition, under setting [2], the “Vasodilatory effect for hairless mouse (red spots)” value is “Δ”.
On to `COc1cc(COC(=O)CCCCCCC(C)C)ccc1O` [dihydrocapsiate, 4-hydroxy-3-methoxybenzyl 8-methylnonanoate, reference compound], for which the “weak red spots were observed even after lapse of” value is recorded as “lapse of 90 min”. The “Vasodilatory effect for hairless mouse (red spots)” value under setting [1] is on record as “Δ”. Besides, under setting [2], the “Vasodilatory effect for hairless mouse (red spots)” value is listed as “∘”.
Turning to `CC[C@H](C)CCCCCOC(=O)CCc1ccc(O)c(OC)c1` [compound L-4, (S)-(+)-6-methyloctyl 3-(4-hydroxy-3-methoxyphenyl)propionate], the “Vasodilatory effect on hairless mouse (red spots)” value was “∘”; the “red spots were observed at, time after application” value is recorded as “Red spots were observed at 5 min”; the “red spots at 1 hr after application” value is “strong red spots after 1 hr”; the “weak red spots were observed even after lapse of” value is reported as “lapse of 1 hr”. Also, the “vasodilatory / blood circulation enhancing effect, summary in words” value is “potent vasodilatory effect”. Further, the “Vasodilatory effect for hairless mouse (red spots)” value under setting [1] is recorded as “∘”. The “Vasodilatory effect for hairless mouse (red spots)” value under setting [2] is “∘”.
Consider `COc1cc(CCCOC(=O)CCCCCCC(C)C)ccc1O` [compound J, 3-(3-methoxy-4-hydroxyphenyl)propyl 8-methylnonanoate], for which the “Vasodilatory effect on hairless mouse (red spots)” value is listed as “x” and the “blood circulation enhancing effect (note, words)” value is given as “Application of 5 wt %: no blood”. Also, the “Vasodilatory effect for hairless mouse (red spots)” value under setting [2] is recorded as “x”.
Turning to `COc1cc(CCCOC(=O)CCC(C)C)ccc1O` [compound J-4, 3-(3-methoxy-4-hydroxyphenyl)propyl 4-methylpentanoate], the “Vasodilatory effect on hairless mouse (red spots)” value is reported as “∘”; the “red spots almost disappeared at” value was “almost disappeared at 30 min later”; the “weak red spots were observed at, time after application” value is reported as “Weak red spots were observed at 10 min”; the “red spots disappeared in” value was “spots disappeared in 1 hr”. Besides, the “vasodilatory / blood circulation enhancing effect, summary in words” value is on record as “weak blood circulation enhancing effect”. Besides, the “Vasodilatory effect for hairless mouse (red spots)” value under setting [1] was “x”. Moreover, the “Vasodilatory effect for hairless mouse (red spots)” value under setting [2] is on record as “Δ”.
Take `COc1cc(CCC(=O)OCCCCCCC(C)C)ccc1O` [compound L-1, 7-methyloctyl 3-(4-hydroxy-3-methoxyphenyl)propionate]: the “Vasodilatory effect on hairless mouse (red spots)” value is recorded as “∘”; the “red spots were observed at, time after application” value is listed as “Red spots were observed at 5 min”; the “red spots at 1 hr after application” value was “thin red spots remained. L-4 showed”; the “red spots disappeared in” value is “spots disappeared in 1 hr”. Moreover, the “vasodilatory / blood circulation enhancing effect, summary in words” value is on record as “potent vasodilatory effect”. Under setting [1], the “Vasodilatory effect for hairless mouse (red spots)” value was “Δ”. Moreover, under setting [2], the “Vasodilatory effect for hairless mouse (red spots)” value was “∘”.
Turning to `COc1cc(/C=C/C(=O)OCCCCCCCC(C)C)ccc1O` [compound Q-1, 8-methylnonyl ferulate], the “Vasodilatory effect on hairless mouse (red spots)” value is listed as “x” and the “blood circulation enhancing effect (note, words)” value is on record as “Application of 5 wt %: no blood”. The “Vasodilatory effect for hairless mouse (red spots)” value under setting [2] is on record as “x”.
